Results reported in US20250019378A1, “PYRROLE[2,3-B]PYRIDINE DERIVATIVES AS TYRO3 INHIBITORS” (HALIA THERAPEUTICS, INC., priority 2021, published 2025).

Target: recombinant human Tyro3 (Homo sapiens (Human), UniProt Q06418)
Experiment: Tyro3 Enzymatic Assay
Type: biochemical
Conditions: radiometric [32P]-ATP kinase assay, Poly(Glu, Tyr) substrate, 2 nM enzyme
Method: Poly(Glu, Tyr) sodium salt (Glu:Tyr (4:1), quality level 200, molecular weight 5,000-20,000, obtained from Sigma Aldrich, catalogue #P7244, assay concentration 0.20 mg/mL) and recombinant human Tyro3 (obtained from ThermoFisher Scientific, catalogue #PV3828, assay concentration 2 nM) were mixed in assay buffer (20 mM Hepes pH 7.5, 10 mM MgCl2, […] EGTA, 0.02% Brij35, 0.02 mg/ml BSA, 0.1 mM Na3VO4, 2 mM DTT, 1% DMSO, with added MnCl2 at a final concentration of 2 mM). Compounds of interest (in DMSO, serial 3-fold dilution from 10 μM to 0.5 nM) or control (1% DMSO) were dispensed into the kinase reaction mixture by Acoustic technology (Echo550; nanoliter range). After incubation at room temperature for 20 minutes, the kinase reaction was initiated by addition of [^32P]-ATP (Specific activity 10 μCi/μL) and the mixture was incubated at room temperature for 2 hours. The reaction was then stopped by spotting the reaction mixture on strips of phosphocellulose P81 paper. Following washing, the radioactivity of the P81 paper was measured and kinase activity data were expressed as the percent remaining kinase activity in test samples compared to vehicle (dimethyl sulfoxide) reactions. IC50 values and curve fits were obtained using Prism (GraphPad Software).

Sequence of recombinant human Tyro3 (Q06418 41-890): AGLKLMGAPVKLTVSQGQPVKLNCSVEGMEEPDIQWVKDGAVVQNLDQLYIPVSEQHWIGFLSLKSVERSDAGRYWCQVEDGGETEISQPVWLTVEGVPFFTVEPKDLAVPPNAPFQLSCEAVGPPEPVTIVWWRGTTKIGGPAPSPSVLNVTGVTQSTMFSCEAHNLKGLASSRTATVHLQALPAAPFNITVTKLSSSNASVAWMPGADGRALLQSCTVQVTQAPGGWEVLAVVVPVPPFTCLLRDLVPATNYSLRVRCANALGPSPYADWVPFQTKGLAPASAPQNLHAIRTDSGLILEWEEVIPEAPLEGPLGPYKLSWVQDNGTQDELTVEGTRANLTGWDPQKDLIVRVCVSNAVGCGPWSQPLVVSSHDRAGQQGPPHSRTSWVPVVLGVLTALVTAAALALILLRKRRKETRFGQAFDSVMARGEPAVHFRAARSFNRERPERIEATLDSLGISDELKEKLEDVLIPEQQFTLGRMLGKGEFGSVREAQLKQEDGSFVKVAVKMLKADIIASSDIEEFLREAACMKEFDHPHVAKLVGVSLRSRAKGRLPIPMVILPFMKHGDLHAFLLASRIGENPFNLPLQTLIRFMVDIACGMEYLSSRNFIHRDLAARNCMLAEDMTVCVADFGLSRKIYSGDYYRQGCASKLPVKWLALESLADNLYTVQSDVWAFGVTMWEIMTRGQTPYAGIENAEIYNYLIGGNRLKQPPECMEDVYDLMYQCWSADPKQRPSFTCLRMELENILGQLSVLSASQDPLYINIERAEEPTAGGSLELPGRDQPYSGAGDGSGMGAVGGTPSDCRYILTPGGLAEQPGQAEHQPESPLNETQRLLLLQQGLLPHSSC

Row | SMILES | IC50 [nM]
1 | COc1ccc(-c2c[nH]c3ncc(-c4cnn(C5CCN(C)CC5)c4)cc23)cn1 [Compound 1, 3-(6-methoxypyridin-3-yl)-5-(1-(1-methylpiperidin-4-yl)-1H-pyrazol-4-yl)-1H-pyrrolo[2,3-b]pyridine] | 151 to 501
2 | COc1ccc(-c2c[nH]c3ncc(-c4cn(C5CCN(C)CC5)nc4OC)cc23)cn1 [Compound 2, 5-(3-methoxy-1-(1-methylpiperidin-4-yl)-1H-pyrazol-4-yl)-3-(6-methoxypyridin-3-yl)-1H-pyrrolo[2,3-b]pyridine] | < 50
3 | CCOc1nn(C2CCN(C)CC2)cc1-c1cnc2[nH]cc(-c3ccc(OC)nc3)c2c1 [Compound 3, 5-(3-ethoxy-1-(1-methylpiperidin-4-yl)-1H-pyrazol-4-yl)-3-(6-methoxypyridin-3-yl)-1H-pyrrolo[2,3-b]pyridine] | < 50
4 | COc1nn(C2CN(C)C2)cc1-c1cnc2[nH]cc(-c3cccc(F)c3)c2c1 [Compound 13, 3-(3-fluorophenyl)-5-(3-methoxy-1-(1-methylazetidin-3-yl)-1H-pyrazol-4-yl)-1H-pyrrolo[2,3-b]pyridine] | < 50
5 | COc1nn(C2CCCN(C)C2)cc1-c1cnc2[nH]cc(-c3cccc(F)c3)c2c1 (centres unmarked) [Compound 15, 3-(3-fluorophenyl)-5-(3-methoxy-1-(1-methylpiperidin-3-yl)-1H-pyrazol-4-yl)-1H-pyrrolo[2,3-b]pyridine] | 151 to 501
6 | COc1nn(C2CCN(C)CC2)cc1-c1cnc2[nH]cc(-c3cccc(C(F)F)c3)c2c1 [Compound 16, 3-(3-(difluoromethyl)phenyl)-5-(3-methoxy-1-(1-methylpiperidin-4-yl)-1H-pyrazol-4-yl)-1H-pyrrolo[2,3-b]pyridine] | < 50
7 | CN1CCC(n2cc(-c3cnc4[nH]cc(-c5cccc(C(F)F)c5)c4c3)c(F)n2)CC1 [Compound 17, 3-(3-(difluoromethyl)phenyl)-5-(3-fluoro-1-(1-methylpiperidin-4-yl)-1H-pyrazol-4-yl)-1H-pyrrolo[2,3-b]pyridine] | 51 to 150
8 | COc1nn(C2CCN(C)CC2)cc1-c1cnc2[nH]cc(-c3ccnc(C(F)F)c3)c2c1 [Compound 20, 3-(2-(difluoromethyl)pyridin-4-yl)-5-(3-methoxy-1-(1-methylpiperidin-4-yl)-1H-pyrazol-4-yl)-1H-pyrrolo[2,3-b]pyridine] | < 50
9 | CCc1[nH]c2ncc(-c3cn(C4CCN(C)CC4)nc3OC)cc2c1-c1ccc(OC)nc1 [Compound 21, 2-ethyl-5-(3-methoxy-1-(1-methylpiperidin-4-yl)-1H-pyrazol-4-yl)-3-(6-methoxypyridin-3-yl)-1H-pyrrolo[2,3-b]pyridine] | 51 to 150
10 | CCc1[nH]c2ncc(-c3cn(C4CCN(CC)CC4)nc3F)cc2c1-c1ccc(OC)nc1 [Compound 22, 2-ethyl-5-(1-(1-ethylpiperidin-4-yl)-3-fluoro-1H-pyrazol-4-yl)-3-(6-methoxypyridin-3-yl)-1H-pyrrolo[2,3-b]pyridine] | 51 to 150
11 | CCc1[nH]c2ncc(-c3cn(C4CCN(C)CC4)nc3Cl)cc2c1-c1ccc(OC)nc1 [Compound 23, 5-(3-chloro-1-(1-methylpiperidin-4-yl)-1H-pyrazol-4-yl)-2-ethyl-3-(6-methoxypyridin-3-yl)-1H-pyrrolo[2,3-b]pyridine] | 51 to 150
12 | CCc1[nH]c2ncc(-c3cn(C4CCN(C)CC4)nc3OC)cc2c1-c1cccc(F)c1 [Compound 24, 2-ethyl-3-(3-fluorophenyl)-5-(3-methoxy-1-(1-methylpiperidin-4-yl)-1H-pyrazol-4-yl)-1/-pyrrolo[2,3-b]pyridine] | 51 to 150
13 | CCc1[nH]c2ncc(-c3cn(C4CCN(C)CC4)nc3F)cc2c1-c1cccc(F)c1 [Compound 25, 2-ethyl-5-(3-fluoro-1-(1-methylpiperidin-4-yl)-1H-pyrazol-4-yl)-3-(3-fluorophenyl)-1H-pyrrolo[2,3-b]pyridine] | 51 to 150
14 | CCc1[nH]c2ncc(-c3cn(C4CCN(C)CC4)nc3Cl)cc2c1-c1cccc(F)c1 [Compound 26, 5-(3-chloro-1-(1-methylpiperidin-4-yl)-1H-pyrazol-4-yl)-2-ethyl-3-(3-fluorophenyl)-1H-pyrrolo[2,3-b]pyridine] | 151 to 501
15 | CCc1[nH]c2ncc(-c3cn(C4CCN(C)CC4)nc3OC)cc2c1-c1cccc(C(F)F)c1 [Compound 27, 3-(3-(difluoromethyl)phenyl)-2-ethyl-5-(3-methoxy-1-(1-methylpiperidin-4-yl)-1H-pyrazol-4-yl)-1H-pyrrolo[2,3-b]pyridine] | 51 to 150
16 | COc1nn(C2CCN(C)CC2)cc1-c1cnc2[nH]c(Cl)c(-c3cccc(F)c3)c2c1 [Compound 28, 2-chloro-3-(3-fluorophenyl)-5-(3-methoxy-1-(1-methylpiperidin-4-yl)-1H-pyrazol-4-yl)-1H-pyrrolo[2,3-b]pyridine] | 51 to 150
17 | COc1nn(C2CCN(C(C)=O)CC2)cc1-c1cnc2[nH]cc(-c3cccc(F)c3)c2c1 [Compound 30, 1-(4-(4-(3-(3-fluorophenyl)-1H-pyrrolo[2,3-b]pyridin-5-yl)-3-methoxy-1H-pyrazol-1-yl)piperidin-1-yl)ethan-1-one] | > 500
18 | COc1ccc(-c2c[nH]c3ncc(-c4cnn(CC5CCN(C)CC5)c4)cc23)cn1 [Compound 31, 3-(6-methoxypyridin-3-yl)-5-(1-((1-methylpiperidin-4-yl)methyl)-1H-pyrazol-4-yl)-1H-pyrrolo[2,3-b]pyridine] | 151 to 501
19 | COc1ccc(-c2c[nH]c3ncc(-c4cnn(C5CCC(O)CC5)c4)cc23)cn1 (centres unmarked) [Compound 32, 4-(4-(3-(6-methoxypyridin-3-yl)-1H-pyrrolo[2,3-b]pyridin-5-yl)-1H-pyrazol-1-yl)cyclohexan-1-ol] | 151 to 501

Other lines, results leading:

Row | IC50 [nM] | SMILES
20 | 51 to 150 | COc1ccc(-c2c[nH]c3ncc(-c4cn(C5CCN(C)CC5)nc4F)cc23)cn1 [Compound 4, 5-(3-fluoro-1-(1-methylpiperidin-4-yl)-1H-pyrazol-4-yl)-3-(6-methoxypyridin-3-yl)-1H-pyrrolo[2,3-b]pyridine]
21 | < 50 | COc1ccc(-c2c[nH]c3ncc(-c4cn(C5CCN(C)CC5)nc4Cl)cc23)cn1 [Compound 5, 5-(3-chloro-1-(1-methylpiperidin-4-yl)-1H-pyrazol-4-yl)-3-(6-methoxypyridin-3-yl)-1H-pyrrolo[2,3-b]pyridine]
22 | > 500 | COc1ccc(-c2c[nH]c3ncc(-c4ccn(C5CCN(C)CC5)n4)cc23)cn1 [Compound 6, 3-(6-methoxypyridin-3-yl)-5-(1-(1-methylpiperidin-4-yl)-1H-pyrazol-3-yl)-1H-pyrrolo[2,3-b]pyridine]
23 | > 500 | COc1ccc(-c2c[nH]c3ncc(-c4ccnn4C4CCN(C)CC4)cc23)cn1 [Compound 7, 3-(6-methoxypyridin-3-yl)-5-(1-(1-methylpiperidin-4-yl)-1H-pyrazol-5-yl)-1H-pyrrolo[2,3-b]pyridine]
24 | 151 to 501 | COc1ccc(-c2c[nH]c3ncc(-c4cn(C5CCN(C)CC5)nc4C)cc23)cn1 [Compound 8, 3-(6-methoxypyridin-3-yl)-5-(3-methyl-1-(1-methylpiperidin-4-yl)-1H-pyrazol-4-yl)-1H-pyrrolo[2,3-b]pyridine]
25 | > 500 | COc1ccc(-c2c[nH]c3ncc(-c4cnn(C5CCN(C)CC5)c4C)cc23)cn1 [Compound 9, 3-(6-methoxypyridin-3-yl)-5-(5-methyl-1-(1-methylpiperidin-4-yl)-1H-pyrazol-4-yl)-1H-pyrrolo[2,3-b]pyridine]
26 | < 50 | COc1nn(C2CCN(C)CC2)cc1-c1cnc2[nH]cc(-c3cccc(F)c3)c2c1 [Compound 10, 3-(3-fluorophenyl)-5-(3-methoxy-1-(1-methylpiperidin-4-yl)-1H-pyrazol-4-yl)-1H-pyrrolo[2,3-b]pyridine]
27 | < 50 | CN1CCC(n2cc(-c3cnc4[nH]cc(-c5cccc(F)c5)c4c3)c(Cl)n2)CC1 [Compound 11, 5-(3-chloro-1-(1-methylpiperidin-4-yl)-1H-pyrazol-4-yl)-3-(3-fluorophenyl)-1H-pyrrolo[2,3-b]pyridine]
28 | < 50 | COc1nn(C2CCN(C)C2)cc1-c1cnc2[nH]cc(-c3cccc(F)c3)c2c1 (centres unmarked) [Compound 12, 3-(3-fluorophenyl)-5-(3-methoxy-1-(1-methylpyrrolidin-3-yl)-1H-pyrazol-4-yl)-1H-pyrrolo[2,3-b]pyridine]
29 | < 50 | COc1nn(C2CCCN(C)CC2)cc1-c1cnc2[nH]cc(-c3cccc(F)c3)c2c1 (centres unmarked) [Compound 14, 3-(3-fluorophenyl)-5-(3-methoxy-1-(1-methylazepan-4-yl)-1H-pyrazol-4-yl)-1H-pyrrolo[2,3-b]pyridine]
30 | < 50 | CN1CCC(n2cc(-c3cnc4[nH]cc(-c5cccc(C(F)F)c5)c4c3)c(Cl)n2)CC1 [Compound 18, 5-(3-chloro-1-(1-methylpiperidin-4-yl)-1H-pyrazol-4-yl)-3-(3-(difluoromethyl)phenyl)-1H-pyrrolo[2,3-b]pyridine]
31 | < 50 | CCOc1nn(C2CCN(C)CC2)cc1-c1cnc2[nH]cc(-c3ccc(C(F)F)nc3)c2c1 [Compound 19, 3-(6-(difluoromethyl)pyridin-3-yl)-5-(3-ethoxy-1-(1-methylpiperidin-4-yl)-1H-pyrazol-4-yl)-1H-pyrrolo[2,3-b]pyridine]
32 | 51 to 150 | COCCN1CCC(n2cc(-c3cnc4[nH]cc(-c5cccc(F)c5)c4c3)c(OC)n2)CC1 [Compound 29, 3-(3-fluorophenyl)-5-(3-methoxy-1-(1-(2-methoxyethyl)piperidin-4-yl)-1H-pyrazol-4-yl)-1H-pyrrolo[2,3-b]pyridine]
